Where two headings read alike, the source gives them in different places.
Legend:
[1] = pharmacokinetics after intravenous and oral administration in mice; type: in vivo; details: mouse, plasma
From the text: After a single intravenous administration of the drug of Formula I as the monomaleate salt to mice and dogs, plasma concentrations of Formula I decreased in a biphasic manner.

2C19 = 2C19 (Homo sapiens, UniProt P33261); assay: inhibition of human liver cytochrome P450 2C19; type: in vitro ADME; details: human liver cytochrome P450 isoenzyme
Sequence of 2C19 (P33261 whole entry): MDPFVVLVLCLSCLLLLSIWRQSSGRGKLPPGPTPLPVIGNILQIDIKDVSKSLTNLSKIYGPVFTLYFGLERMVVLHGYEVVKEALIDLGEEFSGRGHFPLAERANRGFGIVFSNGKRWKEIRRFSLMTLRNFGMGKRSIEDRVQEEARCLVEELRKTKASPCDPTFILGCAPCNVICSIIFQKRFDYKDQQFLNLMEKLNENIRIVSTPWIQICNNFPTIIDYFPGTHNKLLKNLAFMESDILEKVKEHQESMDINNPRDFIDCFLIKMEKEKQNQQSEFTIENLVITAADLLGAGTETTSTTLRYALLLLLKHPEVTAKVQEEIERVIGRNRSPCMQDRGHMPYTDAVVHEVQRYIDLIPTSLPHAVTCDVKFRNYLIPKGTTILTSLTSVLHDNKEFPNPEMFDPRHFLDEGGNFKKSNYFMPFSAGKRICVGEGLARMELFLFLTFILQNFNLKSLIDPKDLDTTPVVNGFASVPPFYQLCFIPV

[2] = Example 1 single dose study: pharmacokinetics; type: in vivo, human; details: for Cmax / half-life / AUC(0-inf) / AUC(0-t) / AUC / Tmax: both sexes, human; for Tmax: read-out: mean time to maximum plasma concentration (Tmax)
Method: A single-center, randomized, double-blind, dose-rising study to determine the safety, pharmacokinetics, and pharmacodynamics of single doses of 1-(3-chloro-5-{[4-(4-chlorothiophen-2-yl)-5-(4-cyclohexylpiperazin-1-yl)thiazol-2-yl]carbamoyl} pyridin-2-yl)piperadine-4-carboxylic acid (Formula I) in normal healthy volunteers was performed. The starting dose of the drug of Formula I was 1 mg (expressed as free base). Successive dose cohorts received 3, 10, 20, 50, 75 and 100 mg. The drug substance in the form of the monomaleate salt was suspended in Ora-Plus® (purified water, microcrystalline cellulose, sodium carboxymethylcellulose, xanthan gum, citric acid, sodium phosphate, simethicone, potassium sorbate and methylparaben), a commercially available oral suspending vehicle manufactured by Paddock Laboratories, Inc. Minneapolis, Minn. The Ora-Plus® was diluted with purified water, USP in a 1:1 suspension before being used to suspend the drug substance powder in preparation for oral administration. Prior to administration, 30 mL of the Ora-Plus®/water vehicle was added to each bottle, shaken and then consumed by the subject for each of the 3, 10, 50 and 75 mg dose cohorts. This was followed by an additional 30 mL of vehicle that was added to the bottle as a wash solution, shaken and then consumed by the subject. For the 20 mg and 100 mg dose cohorts, 60 mL of the Ora-Plus®/water vehicle was added to two (2) separate bottles containing the appropriate dose of drug (30 mL each bottle), shaken then consumed by the subjects. This was followed by an additional 60 mL of vehicle that was added as 30 ml to each bottle as a wash solution, shaken and then consumed by the subject.
A minimum of 9 subjects (male and female healthy volunteers) were enrolled in each cohort. The active group within each cohort included male and female volunteers. Three subjects per cohort received placebo. Each successive dose cohort was treated no sooner than 10 days after the previous group had received the study drug. […] Each subject received only 1 dose of Formula I. Intra-subject dose escalation and treating previously treated subjects in any cohort expansions were not allowed. All subjects were followed until their platelet count returned to normal levels (defined as ±20% of baseline).
Dose escalation was stopped if the PD limiting dose was reached or at the dose at which a dose limiting toxicity (DLT) was observed. The pharmacodynamic limit (PD limit) is defined as the dose at which there was a 50% increase in platelet count relative to the […] in the 6 actively treated subjects. The pharmacodynamic limiting dose (if reached), was repeated by running an additional cohort of 9 subjects (3 placebo and 6 active) at the dose level of the observed PD limit.
Pharmacokinetic sampling was taken. Pharmacodynamic evaluations of platelet counts and other hematological parameters were performed from study drug administration (Day 1) until 7 days after dosing. Outpatient follow-up for safety evaluation occurred until 14 days post-treatment for all subjects and longer for subjects requiring additional follow-up. For the repeat PD dose cohort or 100 mg dose cohort, the evaluations of platelet counts and other hematological parameters were performed each day from Day 1 through 14 and then every other day up to Day 28. If the PD dose limit was not reached at a dose of 75 mg, platelet count evaluations as outlined for the PD limiting dose were performed on the 100 mg dose cohort.

For O=C(Nc1nc(-c2cc(Cl)cs2)c(N2CCN(C3CCCCC3)CC2)s1)c1cnc(N2CCC(C(=O)O)CC2)c(Cl)c1 [Formula I, 1-(3-chloro-5-{[4-(4-chlorothiophen-2-yl)-5-(4-cyclohexylpiperazin-1-yl)thiazol-2-yl]carbamoyl}pyridin-2-yl)piperadine-4-carboxylic acid], the half-life ([1]; mice, single intravenous administration as the monomaleate salt, read-out: terminal elimination half-life (t1/2) (converted)) was 2.7 h, the bioavailability ([1]; oral administration, read-out: absolute bioavailability) was 91% and the “inhibition of CYP2C19” value (2C19) was “did not inhibit”. The Cmax ([2]; plasma, oral, 1 mg, single 1 mg daily dose, read-out: mean maximum plasma concentration (Cmax)) was ~5.7 ng/mL, the Cmax ([2]; plasma, oral, 3 mg, single 3 mg daily dose, read-out: mean maximum plasma concentration (Cmax)) was 14 to 17 ng/mL and the Cmax ([2]; plasma, oral, 10 mg, single 10 mg daily dose, (±20%), read-out: mean maximum plasma concentration (Cmax)) was 53 to 69 ng/mL. The Cmax ([2]; plasma, oral, 20 mg, single 20 mg daily dose, read-out: mean maximum plasma concentration (Cmax)) was 121 to 168 ng/mL, the Cmax ([2]; plasma, oral, 50 mg, single 50 mg daily dose, read-out: mean maximum plasma concentration (Cmax)) was ~311 ng/mL and the Cmax ([2]; plasma, oral, 75 mg, single 75 mg daily dose, read-out: mean maximum plasma concentration (Cmax)) was ~473 ng/mL. The Cmax ([2]; plasma, oral, 100 mg, 100 mg daily dose, read-out: mean maximum plasma concentration (Cmax)) was ~388 ng/mL, the Cmax ([2]; plasma, po, 1 mg, single oral dose 1 mg, healthy volunteers, final mean, read-out: Cmax) was 5.67 ng/mL and the half-life ([2]; plasma, po, 1 mg, single oral dose 1 mg, healthy volunteers, final mean, read-out: T½ (converted)) was 21.5 h. It also gave a Cmax ([2]; plasma, po, 1 mg, single oral dose 1 mg, healthy volunteers, preliminary mean, read-out: Cmax) of 5.15 ng/mL, a half-life ([2]; plasma, po, 1 mg, single oral dose 1 mg, healthy volunteers, preliminary mean, read-out: T½ (converted)) of 18.9 h and a Cmax ([2]; plasma, po, 3 mg, single oral dose 3 mg, healthy volunteers, preliminary mean, read-out: Cmax) of 16 ng/mL. It also gave a half-life ([2]; plasma, po, 3 mg, single oral dose 3 mg, healthy volunteers, preliminary mean, read-out: T½ (converted)) of 17.5 h, a Cmax ([2]; plasma, po, 10 mg, single oral dose 10 mg, healthy volunteers, preliminary mean, read-out: Cmax) of 63.6 ng/mL and a half-life ([2]; plasma, po, 10 mg, single oral dose 10 mg, healthy volunteers, preliminary mean, read-out: T½ (converted)) of 18 h. For the same compound, the Cmax ([2]; plasma, po, 20 mg, single oral dose 20 mg, healthy volunteers, preliminary mean, read-out: Cmax) was 146 ng/mL, the half-life ([2]; plasma, po, 20 mg, single oral dose 20 mg, healthy volunteers, preliminary mean, read-out: T½ (converted)) was 12.9 h and the Cmax ([2]; plasma, po, 50 mg, single oral dose 50 mg, healthy volunteers, final mean, read-out: Cmax) was 312 ng/mL. The half-life ([2]; plasma, po, 50 mg, single oral dose 50 mg, healthy volunteers, final mean, read-out: T½ (converted)) was 19 h, the Cmax ([2]; plasma, po, 50 mg, single oral dose 50 mg, healthy volunteers, preliminary mean, read-out: Cmax) was 294 ng/mL and the half-life ([2]; plasma, po, 50 mg, single oral dose 50 mg, healthy volunteers, preliminary mean, read-out: T½ (converted)) was 14.8 h. It also gave a Cmax ([2]; plasma, po, 75 mg, single oral dose 75 mg, healthy volunteers, final mean, read-out: Cmax) of 474 ng/mL, a half-life ([2]; plasma, po, 75 mg, single oral dose 75 mg, healthy volunteers, final mean, read-out: T½ (converted)) of 18.8 h and a Cmax ([2]; plasma, po, 75 mg, single oral dose 75 mg, healthy volunteers, preliminary mean, read-out: Cmax) of 446 ng/mL. For the same compound, the half-life ([2]; plasma, po, 75 mg, single oral dose 75 mg, healthy volunteers, preliminary mean, read-out: T½ (converted)) was 15.3 h, the Cmax ([2]; plasma, po, 100 mg, single oral dose 100 mg, healthy volunteers, final mean, read-out: Cmax) was 388 ng/mL and the half-life ([2]; plasma, po, 100 mg, single oral dose 100 mg, healthy volunteers, final mean, read-out: T½ (converted)) was 18 h. For the same compound, the Cmax ([2]; plasma, po, 100 mg, single oral dose 100 mg, healthy volunteers, preliminary mean, read-out: Cmax) was 365 ng/mL, the half-life ([2]; plasma, po, 100 mg, single oral dose 100 mg, healthy volunteers, preliminary mean, read-out: T½ (converted)) was 15.8 h and the AUC(0-inf) ([2]; plasma, single oral dose 1 mg, healthy volunteers, final mean) was 183 ng·h/mL. It also gave an AUC(0-t) ([2]; plasma, single oral dose 1 mg, healthy volunteers, final mean, read-out: AUC0-last) of 130 ng·h/mL, an AUC ([2]; plasma, single oral dose 1 mg, healthy volunteers, preliminary mean) of 161 ng·h/mL and an AUC ([2]; plasma, single oral dose 3 mg, healthy volunteers, preliminary mean) of 477 ng·h/mL. The AUC ([2]; plasma, single oral dose 10 mg, healthy volunteers, preliminary mean) was 2110 ng·h/mL, the AUC ([2]; plasma, single oral dose 20 mg, healthy volunteers, preliminary mean) was 4020 ng·h/mL and the AUC(0-inf) ([2]; plasma, single oral dose 50 mg, healthy volunteers, final mean) was 8480 ng·h/mL. The AUC(0-t) ([2]; plasma, single oral dose 50 mg, healthy volunteers, final mean, read-out: AUC0-last) was 6880 ng·h/mL, the AUC ([2]; plasma, single oral dose 50 mg, healthy volunteers, preliminary mean) was 9180 ng·h/mL and the AUC(0-inf) ([2]; plasma, single oral dose 75 mg, healthy volunteers, final mean) was 13500 ng·h/mL. The AUC(0-t) ([2]; plasma, single oral dose 75 mg, healthy volunteers, final mean, read-out: AUC0-last) was 10800 ng·h/mL, the AUC ([2]; plasma, single oral dose 75 mg, healthy volunteers, preliminary mean) was 12600 ng·h/mL and the AUC(0-inf) ([2]; plasma, single oral dose 100 mg, healthy volunteers, final mean) was 11100 ng·h/mL. The AUC(0-t) ([2]; plasma, single oral dose 100 mg, healthy volunteers, final mean, read-out: AUC0-last) was 10900 ng·h/mL, the AUC ([2]; plasma, single oral dose 100 mg, healthy volunteers, preliminary mean) was 10500 ng·h/mL and the half-life ([2]; serum, oral, single dose 1 mg to 100 mg, independent of the dose, read-out: serum elimination half-life (mean t1/2)) was 18 to 24 h. The Cmax ([2]; serum, po, 3 mg, single oral dose 3 mg, healthy volunteers, final mean, read-out: Cmax) was 17.1 ng/mL, the half-life ([2]; serum, po, 3 mg, single oral dose 3 mg, healthy volunteers, final mean, read-out: T½ (converted)) was 23.6 h and the Cmax ([2]; serum, po, 10 mg, single oral dose 10 mg, healthy volunteers, final mean, read-out: Cmax) was 69.1 ng/mL. It also gave a half-life ([2]; serum, po, 10 mg, single oral dose 10 mg, healthy volunteers, final mean, read-out: T½ (converted)) of 21.8 h, a Cmax ([2]; serum, po, 20 mg, single oral dose 20 mg, healthy volunteers, final mean, read-out: Cmax) of 169 ng/mL and a half-life ([2]; serum, po, 20 mg, single oral dose 20 mg, healthy volunteers, final mean, read-out: T½ (converted)) of 18.9 h. It also gave an AUC(0-inf) ([2]; serum, single oral dose 3 mg, healthy volunteers, final mean) of 534 ng·h/mL, an AUC(0-t) ([2]; serum, single oral dose 3 mg, healthy volunteers, final mean, read-out: AUC0-last) of 401 ng·h/mL and an AUC(0-inf) ([2]; serum, single oral dose 10 mg, healthy volunteers, final mean) of 2380 ng·h/mL. It also gave an AUC(0-t) ([2]; serum, single oral dose 10 mg, healthy volunteers, final mean, read-out: AUC0-last) of 1650 ng·h/mL, an AUC(0-inf) ([2]; serum, single oral dose 20 mg, healthy volunteers, final mean) of 4440 ng·h/mL and an AUC(0-t) ([2]; serum, single oral dose 20 mg, healthy volunteers, final mean, read-out: AUC0-last) of 3600 ng·h/mL. For the same compound, the AUC(0-t) ([2]; plasma, oral, 100 mg daily dose, read-out: mean AUC0-last) was ~10900 ng·h/mL, the Tmax ([2]; plasma, oral, 100 mg daily dose) was ~6.2 h and the AUC(0-t) ([2]; plasma, oral, single 1 mg daily dose, read-out: mean AUC0-last) was ~130 ng·h/mL. It also gave a Tmax ([2]; plasma, oral, single 1 mg daily dose) of ~6.1 h, an AUC(0-t) ([2]; plasma, oral, single 3 mg daily dose, read-out: mean AUC0-last) of 235 to 400 ng·h/mL and a Tmax ([2]; plasma, oral, single 3 mg daily dose) of ~5.5 h. The AUC(0-t) ([2]; plasma, oral, single 10 mg daily dose, read-out: mean AUC0-last) was 840 to 1640 ng·h/mL, the Tmax ([2]; plasma, oral, single 10 mg daily dose) was 4.8 to 6 h and the AUC(0-t) ([2]; plasma, oral, single 20 mg daily dose, read-out: mean AUC0-last) was 1960 to 3600 ng·h/mL. It also gave a Tmax ([2]; plasma, oral, single 20 mg daily dose) of ~5.2 h, an AUC(0-t) ([2]; plasma, oral, single 50 mg daily dose, read-out: mean AUC0-last) of ~6880 ng·h/mL and a Tmax ([2]; plasma, oral, single 50 mg daily dose) of ~4.8 h. For the same compound, the AUC(0-t) ([2]; plasma, oral, single 75 mg daily dose, read-out: mean AUC0-last) was ~10800 ng·h/mL, the Tmax ([2]; plasma, oral, single 75 mg daily dose) was ~6 h and the “dose proportionality of Cmax and AUC” value ([2]; single doses 1 to 100 mg, slightly lower than expected exposure at 100 mg) was “increased proportionally up to the 75 mg dose”. For the same compound, the lag time ([2]; single oral dose, healthy volunteers) was 2 to 4 h.

Reference: patent publication US20110224226A1, “COMPOSITIONS AND METHODS FOR INCREASING BLOOD PLATELET LEVELS IN HUMANS” (AKARX, Inc., priority 2006, published 2011)
